Target: T1, human PDE4B1 (Homo sapiens, UniProt Q07343)
T1 construct: host or cells: Sf9 cells
Experiment: cAMP HTRF assay to determine the activity of hPDE4B1
Format: biochemical
Conditions: inhibition of PDE4B at a test concentration of 1 μM
Outline: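 […], using HTRF quantitation of residual cAMP after 1 mM IBMX stop and 60 min detection. Enzyme was Sf9-expressed human PDE4B1 incubated 30 min at room temperature with 40 nM final cAMP at pH 7.8.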

T1 sequence (Q07343 whole entry): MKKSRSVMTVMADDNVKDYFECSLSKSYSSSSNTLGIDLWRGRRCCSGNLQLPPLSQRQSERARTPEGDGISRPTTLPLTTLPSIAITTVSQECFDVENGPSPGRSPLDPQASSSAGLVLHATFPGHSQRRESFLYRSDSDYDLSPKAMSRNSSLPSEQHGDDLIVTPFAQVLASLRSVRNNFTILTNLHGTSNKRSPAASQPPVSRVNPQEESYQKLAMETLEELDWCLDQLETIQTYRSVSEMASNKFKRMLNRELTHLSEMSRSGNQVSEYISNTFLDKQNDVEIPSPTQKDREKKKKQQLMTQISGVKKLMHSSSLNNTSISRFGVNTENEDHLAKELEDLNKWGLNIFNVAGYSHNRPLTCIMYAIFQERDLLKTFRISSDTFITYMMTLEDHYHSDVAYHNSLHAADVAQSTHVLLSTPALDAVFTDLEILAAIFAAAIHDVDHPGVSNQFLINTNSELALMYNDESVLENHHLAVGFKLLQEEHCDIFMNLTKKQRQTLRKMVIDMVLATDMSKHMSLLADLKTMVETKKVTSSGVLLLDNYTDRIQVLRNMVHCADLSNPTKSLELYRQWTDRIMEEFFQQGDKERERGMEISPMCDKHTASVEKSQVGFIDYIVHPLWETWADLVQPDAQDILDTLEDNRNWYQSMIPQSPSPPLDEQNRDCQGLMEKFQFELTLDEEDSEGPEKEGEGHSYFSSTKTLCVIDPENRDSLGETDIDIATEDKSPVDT

Structure (SMILES)	inhibition at 1 µM [%]	Inhibition in % (1 µM) [%]
C[S+]([O-])c1cn(-c2ncc(-c3ccc(C(N)=O)cc3)cn2)c2cc(C(=O)N3CCOCC3)ccc12 (stereo not drawn) [Example 42, 4-(2-(3-(Methylsulfinyl)-6-(morpholine-4-carbonyl)-1H-indol-1-yl)pyrimidin-5-yl)benzamide]	86	–
COc1ccc(-c2cnc(-n3cc([S+](C)[O-])c4ccc(C(=O)N5CCOCC5)cc43)nc2)cc1 (stereo not drawn) [Example 33, (1-(5-(4-Methoxyphenyl)pyrimidin-2-yl)-3-(methylsulfinyl)-1H-indol-6-yl)(morpholino)methanone]	88	–
C[S+]([O-])c1cn(-c2ncc(-c3ccccc3F)cn2)c2cc(C(=O)N3CCOCC3)ccc12 (stereo not drawn) [Example 1, (1-(5-(2-fluorophenyl)pyrimidin-2-yl)-3-(methylsulfinyl)-1H-indol-6-yl)(morpholino)methanone]	104	–
C[S+]([O-])c1cn(-c2ncc(-c3ccccc3F)cn2)c2cc(C(=O)NCCO)ccc12 (stereo not drawn) [Example 63, 1-(5-(2-Fluorophenyl)pyrimidin-2-yl)-N-(2-hydroxyethyl)-3-(methylsulfinyl)-1H-indole-6-carboxamide]	37	–
Cc1ccc(-c2cnc(-n3cc([S+](C)[O-])c4ccc(C(=O)N5CCOCC5)cc43)nc2)cc1 (stereo not drawn) [Example 46, (3-(Methylsulfinyl)-1-(5-(p-tolyl)pyrimidin-2-yl)-1H-indol-6-yl)(morpholino)methanone]	102	–
C[S+]([O-])c1cn(-c2ncc(-c3ccccc3F)cn2)c2cc(C(=O)NCC3COC3)ccc12 (stereo not drawn) [Example 83, 1-(5-(2-Fluorophenyl)pyrimidin-2-yl)-3-(methylsulfinyl)-N-(oxetan-3-ylmethyl)-1H-indole-6-carboxamide]	67	–
C[S+]([O-])c1cn(-c2ncc(-c3cccc(F)c3F)cn2)c2cc(C(=O)N3CCOCC3)ccc12 (stereo not drawn) [Example 30, (1-(5-(2,3-Difluorophenyl)pyrimidin-2-yl)-3-(methylsulfinyl)-1H-indol-6-yl)(morpholino)methanone]	106	–
C[S+]([O-])c1cn(-c2ncc(-c3ccccc3F)cn2)c2cc(C(=O)N3CCC[C@@H](O)C3)ccc12 (stereo partly drawn) [Example 80, (1-(5-(2-Fluorophenyl)pyrimidin-2-yl)-3-(methylsulfinyl)-1H-indol-6-yl)((R)-3-hydroxypiperidin-1-yl)methanone]	96	–
C[S+]([O-])c1cn(-c2ncc(-c3cccnc3F)cn2)c2cc(C(=O)N3CCOCC3)ccc12 (stereo not drawn) [Example 48, (1-(5-(2-Fluoropyridin-3-yl)pyrimidin-2-yl)-3-(methylsulfinyl)-1H-indol-6-yl)(morpholino)methanone]	63	–
C[S+]([O-])c1cn(-c2ncc(-c3cccc(F)c3)cn2)c2cc(C(=O)N3CCOCC3)ccc12 (stereo not drawn) [Example 34, (1-(5-(3-Fluorophenyl)pyrimidin-2-yl)-3-(methylsulfinyl)-1H-indol-6-yl)(morpholino)methanone]	90	–
CN1CCN(C(=O)c2ccc3c([S+](C)[O-])cn(-c4ncc(-c5ccccc5F)cn4)c3c2)CC1=O (stereo not drawn) [Example 76, 4-(1-(5-(2-Fluorophenyl)pyrimidin-2-yl)-3-(methylsulfinyl)-1H-indole-6-carbonyl)-1-methylpiperazin-2-one]	58	–

More lines, now with the values ahead:

inhibition at 1 µM [%]	Inhibition in % (1 µM) [%]	Structure (SMILES)
106	–	CS(=O)(=O)c1cn(-c2ncc(-c3cc(C#N)ccc3F)cn2)c2cc(C(=O)N3CC[C@@H](N)C3)ccc12 [Example 229, (R)-3-(2-(6-(3-Aminopyrrolidine-1-carbonyl)-3-(methylsulfonyl)-1H-indol-1-yl)pyrimidin-5-yl)-4-fluorobenzonitrile]
45	–	C[C@H](O)CN(C)C(=O)c1ccc2c([S+](C)[O-])cn(-c3ncc(-c4ccccc4F)cn3)c2c1 (stereo partly drawn) [Example 251, 1-(5-(2-Fluorophenyl)pyrimidin-2-yl)-N—((S)-2-hydroxypropyl)-N-methyl-3-(methylsulfinyl)-1H-indole-6-carboxamide]
45	–	COC(=O)C1CCN(C(=O)c2ccc3c([S+](C)[O-])cn(-c4ncc(-c5ccccc5F)cn4)c3c2)C1 (stereo not drawn) [Example 388, Methyl 1-(1-(5-(2-fluorophenyl)pyrimidin-2-yl)-3-(methylsulfinyl)-1H-indole-6-carbonyl)pyrrolidine-3-carboxylate]
0	–	CN(C(=O)c1ccc2c([S+](C)[O-])cn(-c3ncc(-c4ccccc4F)cn3)c2c1)C1CCOCC1 (stereo not drawn) [Example 382, 1-(5-(2-Fluorophenyl)pyrimidin-2-yl)-N-methyl-3-(methylsulfinyl)-N-(tetrahydro-2H-pyran-4-yl)-1H-indole-6-carboxamide]
96	–	C[S+]([O-])c1cn(-c2ncc(-c3cc(C#N)ccn3)cn2)c2cc(C(=O)N3CCOCC3)ccc12 (stereo not drawn) [Example 181, 2-(2-(3-(Methylsulfinyl)-6-(morpholine-4-carbonyl)-1H-indol-1-yl)pyrimidin-5-yl)isonicotinonitrile]
103	–	C[S+]([O-])c1cn(-c2ncc(-c3ccccc3)cn2)c2cc(C(=O)N3C[C@@H]4C[C@H]3CN4)ccc12 (stereo partly drawn) [Example 233, (1S,4S)-2,5-Diazabicyclo[2.2.1]heptan-2-yl(3-(methylsulfinyl)-1-(5-phenylpyrimidin-2-yl)-1H-indol-6-yl)methanone]
39	–	COC(=O)CN(C)C(=O)c1ccc2c([S+](C)[O-])cn(-c3ncc(-c4ccccc4F)cn3)c2c1 (stereo not drawn) [Example 177, Methyl 2-(1-(5-(2-fluorophenyl)pyrimidin-2-yl)-N-methyl-3-(methylsulfinyl)-1H-indole-6-carboxamido)acetate]
54	–	CN1CCN(C(=O)c2ccc3c([S+](C)[O-])cn(-c4ncc(-c5ccccc5F)cn4)c3c2)CC1 (stereo not drawn) [Example 365, (1-(5-(2-Fluorophenyl)pyrimidin-2-yl)-3-(methylsulfinyl)-1H-indol-6-yl)(4-methylpiperazin-1-yl)methanone]
87	–	Cc1cccc(-c2cnc(-n3cc(S(C)(=O)=O)c4ccc(C(=O)N5CC[C@@H](N)C5)cc43)nc2)c1 [Example 167, (R)-(3-Aminopyrrolidin-1-yl)(3-(methylsulfonyl)-1-(5-(m-tolyl)pyrimidin-2-yl)-1H-indol-6-yl)methanone]
88	–	C[C@H]1COCCN1C(=O)c1ccc2c([S+](C)[O-])cn(-c3ncc(-c4ccccc4F)cn3)c2c1 (stereo partly drawn) [Example 178, (1-(5-(2-Fluorophenyl)pyrimidin-2-yl)-3-(methylsulfinyl)-1H-indol-6-yl)((S)-3-methylmorpholino)methanone]
–	97	Cc1cccc(-c2cnc(-n3cc([S+](C)[O-])c4ccc(C(=O)N5CCOCC5)cc43)nc2)c1 (single isomer, unassigned) [Example 155, (3-(Methylsulfinyl)-1-(5-(m-tolyl)pyrimidin-2-yl)-1H-indol-6-yl)(morpholino)methanone]
0	–	CCOC(=O)N1CCN(C(=O)c2ccc3c([S+](C)[O-])cn(-c4ncc(-c5ccccc5F)cn4)c3c2)CC1 (stereo not drawn) [Example 394, Ethyl 4-(1-(5-(2-fluorophenyl)pyrimidin-2-yl)-3-(methylsulfinyl)-1H-indole-6-carbonyl)piperazine-1-carboxylat]
90	–	CC1CCCN1C(=O)c1ccc2c([S+](C)[O-])cn(-c3ncc(-c4ccccc4F)cn3)c2c1 (stereo not drawn) [Example 359, (1-(5-(2-Fluorophenyl)pyrimidin-2-yl)-3-(methylsulfinyl)-1H-indol-6-yl)(2-methylpyrrolidin-1-yl)methanone]
